pIC50: −log10 of the molar value. Read-outs that look alike come from different tables or passages of the source.
Biological target: T1, Cloned Human Serotonin Receptor, Subtype 7 (h5HT7), expressed in CHO cells (Homo sapiens, UniProt P34969)
T1 construct: purchased PerkinElmer 6120512; host or cells: CHO cells (membranes coated on FlashPlate)
Experiment: Radioligand binding, [125I]LSD, Flashplate
Conditions: for inhibition at 1 µM: read-out: %-Inhib. (10^−6 M)
Method: Radioligand binding assays were performed using the Cloned Human Serotonin Receptor, Subtype 7 (h5HT7), expressed in CHO cells, coated on Flashplate (Basic FlashPlate Cat.: SMP200) from PerkinElmer (Cat.: 6120512). The protocol assay was essentially the recommended protocol in the Technical Data Sheet by PerkinEmer Life and Analytical Sciences. The Mass membrane protein/well was typically 12 μg and the Receptor/well was about 9-10 fmoles. The Flashplate were let equilibrate at room temperature for one hour before the addition of the components of the assay mixture. The binding buffer was: 50 mM Tris-HCl, pH 7.4, containing 10 mM MgCl2, 0.5 mM EDTA and 0.5% BSA. The radioligand was [^125I]LSD at a final concentration of 0.82 nM. Nonspecific binding was determined with 50 μM of Clozapine. The assay volume was 25 μl. TopSeal-A were applied onto Flashplate microplates and they were incubated at room temperature for 240 minutes in darkness. The radioactivity were quantified by liquid scintillation spectrophotometry (Wallac 1450 Microbeta Trilux) with a count delay of 4 minutes prior to counting and a counting time of 30 seconds per well. Competition binding data were analyzed by using the LIGAND program (Munson and Rodbard, LIGAND: A versatile, computerized approach for characterization of ligand-binding systems. Anal. Biochem. 107: 220-239, 1980) and assays were performed in triplicate determinations for each point.

[1] = compound at 10^−6 M, radioligand [125I]LSD 0.82 nM
[2] = radioligand [125I]LSD 0.82 nM, triplicate determinations, read-out: IC50

T1 sequence (P34969 whole entry): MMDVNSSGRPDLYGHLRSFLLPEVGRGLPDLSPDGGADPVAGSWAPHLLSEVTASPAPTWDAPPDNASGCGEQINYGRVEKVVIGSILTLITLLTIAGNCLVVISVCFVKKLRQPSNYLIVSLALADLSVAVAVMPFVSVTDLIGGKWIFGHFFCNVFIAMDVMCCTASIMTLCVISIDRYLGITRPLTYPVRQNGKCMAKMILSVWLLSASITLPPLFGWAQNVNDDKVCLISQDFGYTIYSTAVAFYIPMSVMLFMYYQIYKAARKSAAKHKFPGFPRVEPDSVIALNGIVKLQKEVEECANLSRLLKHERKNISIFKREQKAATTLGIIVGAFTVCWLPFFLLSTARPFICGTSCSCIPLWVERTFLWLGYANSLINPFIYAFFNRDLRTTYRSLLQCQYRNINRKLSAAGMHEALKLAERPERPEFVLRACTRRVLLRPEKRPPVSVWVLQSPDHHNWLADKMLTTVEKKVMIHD

| SMILES | inhibition at 1 µM [1] | pIC50 [2] | inhibition at 1 µM | pIC50 |
| --- | --- | --- | --- | --- |
| O=c1[nH]c2ccccc2n1C1=CCN(CCOc2ccccc2)CC1 [1-(1-(2-phenoxyethyl)-1,2,3,6-tetrahydropyridin-4-yl)-1H-benzo[d]imidazol-2(3H)-one] | 85.3% | 6.50 | – | – |
| O=c1[nH]c2ccccc2n1C1CCN(CCOc2ccccc2)CC1 [1-(1-(2-phenoxyethyl)piperidin-4-yl)-1H-benzo[d]imidazol-2(3H)-one] | 76.1% | 6.63 | – | – |
| O=c1[nH]c2ccccc2n1C1=CCN(CCCOc2ccccc2)CC1 [1-(1-(3-phenoxypropyl)-1,2,3,6-tetrahydropyridin-4-yl)-1H-benzo[d]imidazol-2(3H)-one] | – | 5.90 | 67.6% | – |
| CC(C)Oc1ccccc1N1CCN(Cc2ccc(-n3ccnc3)cc2)CC1 [1-(4-(1H-imidazol-1-yl)benzyl)-4-(2-isopropoxyphenyl)piperazine] | – | 6.56 | 74.3% | – |
| CC(C)Oc1ccccc1N1CCN(Cc2ccc(Cl)nc2)CC1 [1-((6-chloropyridin-3-yl)methyl)-4-(2-isopropoxyphenyl)piperazine] | 82.5% | – | – | – |
| CN(C)S(=O)(=O)c1ccc2[nH]cc(CCN)c2c1 [3-(2-aminoethyl)-N,N-dimethyl-1H-indole-5-sulfonamide] | – | 6.76 | 84.3% | – |
| COc1ccccc1N1CCN(CCC(O)c2ccccc2)CC1 (stereo not drawn) [3-(4-(2-methoxyphenyl)piperazin-1-yl)-1-phenylpropan-1-ol] | 78.5% | 6.86 | – | – |
| CCOc1ccccc1N1CCN(Cc2c[nH]c3ccccc23)CC1 [3-((4-(2-ethoxyphenyl)piperazin-1-yl)methyl)-1H-indole] | – | – | 70% | 6.36 |
| COc1ccc(C(C)C)cc1CN1CCN(c2cccc3[nH]ccc23)CC1 [4-(4-(5-isopropyl-2-methoxybenzyl)piperazin-1-yl)-1H-indole] | – | – | 76.6% | 7.54 |
| COc1ccccc1N1CCN(CCC(=O)Nc2ccc3c(c2)CCC3)CC1 [N-(2,3-dihydro-1H-inden-5-yl)-3-(4-(2-methoxyphenyl)piperazin-1-yl)propanamide] | 65.7% | 5.86 | – | – |
| O=C(c1cccs1)C1CN2CCC1CC2 (stereo not drawn) [quinuclidin-3-yl(thiophen-2-yl)methanone] | – | – | 52.1% | 6.01 |
